# Measured values as given in publication PMC5678437, “A new antagonist for CCR4 attenuates allergic lung inflammation in a mouse model of asthma” (Scientific Reports, 2017).
# Key:
# [1] = target: T1, CCR1 (Homo sapiens, UniProt P32246); assay: Chemotaxis inhibition assay for receptor specificity, HEK293-CCR1; format: cell-based; conditions: 0.2, 1, 5, 25 μM, 30 min pretreatment
# T1 construct: expressed in transfected cells; host or cells: HEK293; plasmid gift of Dr. Philip M. Murphy (NIAID, NIH)
# T1 sequence (P32246 1-355): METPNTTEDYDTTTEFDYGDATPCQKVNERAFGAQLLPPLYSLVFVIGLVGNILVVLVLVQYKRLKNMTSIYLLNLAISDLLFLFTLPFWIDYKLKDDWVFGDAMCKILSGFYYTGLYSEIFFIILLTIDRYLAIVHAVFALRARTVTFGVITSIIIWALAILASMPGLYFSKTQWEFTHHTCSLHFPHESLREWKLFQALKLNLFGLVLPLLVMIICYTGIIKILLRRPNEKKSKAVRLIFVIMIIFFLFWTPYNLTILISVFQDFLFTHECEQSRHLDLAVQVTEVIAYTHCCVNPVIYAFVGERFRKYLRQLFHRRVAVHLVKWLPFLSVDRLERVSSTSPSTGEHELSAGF
# Method: (§1) HEK293 cells were transfected with different chemokine receptors. The corresponding chemokines of different receptors were placed in the lower chambers. The transfected cells were pretreated with different concentrations of Compound 8a or 1‰ DMSO for 30 min at a density of 1 × 10^6 cells/ml and added to the upper chambers, the final concentration of the compound is: 0.2 μM, 1 μM, 5 μM, and 25 μM, respectively.
# [2] = system: OVA-induced asthmatic mice; assay: Lung histology (H&E) inflammation score in OVA-induced asthmatic mice; format: in vivo, BALB/c mice; conditions: 5 mg inhaled aerosol; vs OVA mice treated with vehicle
# Method: (§2) Male BALB/c 6 week old mice were purchased from the Experimental Animal Center of Zhejiang University. All mice were raised in a specific pathogen-free animal facility. All animal experiments were carried out according to the guidelines for the care and use of laboratory animals and were approved by the ethics committee of Zhejiang University and Peking University, China.
# (§3) Mice were sensitized and challenged with chicken egg OVA (sigma-Aldrich, St Louis, MO, USA) as described in details previously. Briefly, after sensitized by intraperitoneal injection of 100 μl (80 μg) OVA in 100 μl alum (Pierce, Rockford, IL, USA) on days 0 and 14, mice were exposure to 1% OVA aerosols for 40 min on days 24–26. Control mice were injected intraperitoneally with saline and exposed to saline aerosols.
# (§4) Compound 8a was dissolved in saline with DMSO (0.5%). Half an hour before each OVA challenge, the groups of mice treated with various doses of compound 8a (0.2, 1, 5 mg) inhaled aerosolized compound 8a for 45 min on days 24–26. Compound 8a aerosols were produced by using a Plexiglas chamber and ultrasonic nebulizer. […]
# (§5) After sacrificed, the lungs were fixed in formalin overnight. […] Inflammation was scored according to published guidelines. And PAS-stained goblet cells in airway epithelium were quantified as described previously.
# [3] = target: T2, CXCR4 (Homo sapiens, UniProt P61073); assay: Chemotaxis inhibition assay for receptor specificity, HEK293-CXCR4; format: cell-based; conditions: 0.2, 1, 5, 25 μM, 30 min pretreatment
# T2 construct: expressed in transfected cells; host or cells: HEK293; plasmid from Chinese National Human Genome Center
# T2 sequence (P61073 1-356 isoform P61073-2): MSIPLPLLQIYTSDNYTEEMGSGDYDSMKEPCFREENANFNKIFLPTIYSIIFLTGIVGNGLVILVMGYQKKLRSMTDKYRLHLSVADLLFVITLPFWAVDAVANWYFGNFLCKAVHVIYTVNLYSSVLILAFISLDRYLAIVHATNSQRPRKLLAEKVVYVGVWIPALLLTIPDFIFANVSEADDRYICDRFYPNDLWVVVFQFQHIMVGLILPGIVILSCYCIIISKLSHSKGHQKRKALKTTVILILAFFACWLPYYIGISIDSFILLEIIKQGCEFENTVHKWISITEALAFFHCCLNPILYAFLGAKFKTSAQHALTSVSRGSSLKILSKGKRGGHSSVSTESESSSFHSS
# Method: as §1
# [4] = target: T3, CCR6 (Homo sapiens, UniProt P51684); assay: Chemotaxis assay for receptor specificity, HEK293-CCR6; format: cell-based; conditions: compound as chemoattractant in lower chamber, 0.2, 1, 5, 25 μM
# T3 construct: expressed in transfected cells; host or cells: HEK293, pcDI-CCR6 plasmid made in the authors' laboratory
# T3 sequence (P51684 1-374): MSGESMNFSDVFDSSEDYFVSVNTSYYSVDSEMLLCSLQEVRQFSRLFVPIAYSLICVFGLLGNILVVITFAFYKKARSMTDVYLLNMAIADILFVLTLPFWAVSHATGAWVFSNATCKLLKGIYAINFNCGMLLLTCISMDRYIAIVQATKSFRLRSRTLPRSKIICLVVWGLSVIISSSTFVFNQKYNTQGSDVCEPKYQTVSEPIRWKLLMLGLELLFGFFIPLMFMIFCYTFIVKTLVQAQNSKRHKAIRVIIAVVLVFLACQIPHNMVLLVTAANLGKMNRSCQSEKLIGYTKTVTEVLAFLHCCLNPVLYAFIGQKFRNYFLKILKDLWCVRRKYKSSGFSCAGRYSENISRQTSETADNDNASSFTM
# Method: (§6) HEK293 cells were transfected with different chemokine receptors. Compound 8a with DMSO was diluted to 0.2 mM, 1 mM, 5 mM and 25 mM, and then we used RPMI 1640 medium containing 0.1% BSA for dilution. The final concentration is: 0.2 μM, 1 μM, 5 μM and 25 μM. DMSO was also diluted 1000-fold with 0.1% BSA RPMI 1640 medium. Chemokines was also diluted to an appropriate concentration. The dilutions of Compound 8a, 1‰ DMSO, the corresponding chemokines of different receptors and 0.1% BSA RPMI 1640 medium were placed in the lower chambers (27.5 μl/well). The transfected HEK293 cells were resuspended in the same medium at a density of 1 × 10^6 cells/ml and added to the upper chambers (55 μl/well).
# [5] = target: T4, CCR2B (Homo sapiens, UniProt P41597); assay: Chemotaxis assay for receptor specificity, HEK293-CCR2B; format: cell-based; conditions: compound as chemoattractant in lower chamber, 0.2, 1, 5, 25 μM
# T4 construct: expressed in transfected cells; host or cells: HEK293, pcDB-CCR2B plasmid made in the authors' laboratory
# T4 sequence (P41597 1-360 isoform P41597-2): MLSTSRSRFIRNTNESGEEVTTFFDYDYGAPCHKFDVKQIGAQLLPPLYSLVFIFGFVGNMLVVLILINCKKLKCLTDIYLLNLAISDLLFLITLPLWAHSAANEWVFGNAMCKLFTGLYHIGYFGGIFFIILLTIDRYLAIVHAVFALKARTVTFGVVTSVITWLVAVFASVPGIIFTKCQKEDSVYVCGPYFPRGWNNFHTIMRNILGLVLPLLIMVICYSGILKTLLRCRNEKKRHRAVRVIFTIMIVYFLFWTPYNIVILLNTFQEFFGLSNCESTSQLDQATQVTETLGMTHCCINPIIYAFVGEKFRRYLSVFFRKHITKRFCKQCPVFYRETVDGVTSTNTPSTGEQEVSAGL
# Method: as §6
# [6] = system: OVA-induced asthmatic mice; assay: Airway hyperresponsiveness to aerosolized methacholine in OVA-induced asthmatic mice; format: in vivo, BALB/c mice; conditions: days 24-26, 24 h after final OVA challenge
# Method: as §2, §3
# Compound 8a was dissolved in saline with DMSO (0.5%). Half an hour before each OVA challenge, the groups of mice treated with various doses of compound 8a (0.2, 1, 5 mg) inhaled aerosolized compound 8a for 45 min on days 24–26. Compound 8a aerosols were produced by using a Plexiglas chamber and ultrasonic nebulizer. While the budesonide (BUD) group were administered with 5 mg budesonide, and the vehicle group were treated with compound-dissolved vehicle. The Saline was treated as the control.
# Twenty-four hours after the last challenge, mice were anesthetized and tracheotomized with a cannula, then ventilated at a fixed breathing rate. Once being stabilized, mice were challenged via the airways with saline or increasing concentrations of Mch (1, 2, 4, 8, 16 mg/ml) by nebulization. Airway resistance was measured by FinePointe Series RC Sites (Buxco Research System). Changes in airway resistance were calculated for each Mch concentration.
# [7] = system: OVA-induced asthmatic mice; assay: Airway mucus production (PAS staining) in OVA-induced asthmatic mice; format: in vivo, BALB/c mice; conditions: compound 8a 0.2, 1, 5 mg; budesonide 5 mg; vs vehicle treated group
# Method: as §2, §3, §4, §5
structure (smiles),measurement,setting,value
"O=C(C1CCCCN1)N1CCN(c2nc(Cl)cc(NCc3ccc(Cl)cc3Cl)n2)CC1 (stereo not drawn) [compound 8a, {4-[4-Chloro-6-(2,4-dichloro-benzylamino)-pyrimidin-2-yl]-piperazin-1-yl}-piperidin-2-yl-methanone]",inhibition of chemotaxis of HEK293-CCR1 to its ligand,[1],few influence
same,peribronchial and perivascular inflammation (H&E histology),[2],comparable inhibitory effect
same,inhibition of chemotaxis of HEK293-CXCR4 to its ligand,[3],few influence
same,chemotaxis effect of the compound on HEK293-CCR6,[4],didn’t exert chemotaxis effects
same,chemotaxis effect of the compound on HEK293-CCR2B,[5],didn’t exert chemotaxis effects
same,AHR to methacholine compared with asthmatic mice treated with vehicle,[6]; 0.2 mg inhaled aerosol,significantly lower
same,AHR to methacholine compared with asthmatic mice treated with vehicle,[6]; 1 mg inhaled aerosol,significantly lower
same,AHR to methacholine compared with asthmatic mice treated with vehicle,[6]; 5 mg inhaled aerosol,significantly lower
same,airway mucus production (PAS-stained cells),[7],no difference
